Results as given in patent publication US20250108038A1 (priority 2023, published 2025).
“Also recorded” adds a separate entry of the source.

Biological target: T1, OATP1B3 (Homo sapiens, UniProt Q9NPD5)
T1 sequence (Q9NPD5 1-702): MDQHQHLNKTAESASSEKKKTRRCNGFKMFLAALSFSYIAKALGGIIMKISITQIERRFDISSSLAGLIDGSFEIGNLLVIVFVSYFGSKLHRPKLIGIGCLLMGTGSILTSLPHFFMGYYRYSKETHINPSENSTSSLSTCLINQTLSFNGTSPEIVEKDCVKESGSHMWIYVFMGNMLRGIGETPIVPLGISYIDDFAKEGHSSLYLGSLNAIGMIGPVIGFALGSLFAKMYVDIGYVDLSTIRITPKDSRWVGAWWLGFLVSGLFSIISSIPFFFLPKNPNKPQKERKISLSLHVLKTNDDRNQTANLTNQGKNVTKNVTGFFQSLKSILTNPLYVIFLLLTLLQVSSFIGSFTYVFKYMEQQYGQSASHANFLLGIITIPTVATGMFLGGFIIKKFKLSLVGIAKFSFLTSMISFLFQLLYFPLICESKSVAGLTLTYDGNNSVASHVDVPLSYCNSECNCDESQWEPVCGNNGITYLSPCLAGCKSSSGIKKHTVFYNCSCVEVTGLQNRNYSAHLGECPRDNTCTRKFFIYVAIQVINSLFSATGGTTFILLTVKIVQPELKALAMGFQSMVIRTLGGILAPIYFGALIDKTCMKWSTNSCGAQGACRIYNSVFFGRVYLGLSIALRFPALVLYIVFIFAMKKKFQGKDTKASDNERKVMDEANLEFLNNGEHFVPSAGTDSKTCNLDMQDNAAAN
Experiment: Uptake transporter inhibition assay, OATP1B3 (CCK-8)
Conditions: for Maximum % inhibition: OATP1B3, HEK293 cells, CCK-8 (1 μM), NIO: no inhibition observed
Protocol: Uptake experiments were performed using HEK293 cells stably expressing the respective uptake transporters. The assays were conducted according to the actual SOLVO uptake transporter assay protocols (PR-ASY-UPT-General Protocol for Uptake Transporter Inhibition Assays).
Cells were cultured at 37° C. in a humidified atmosphere containing 5% CO2 and were plated onto standard 96-well tissue culture plates.
Before the experiment, the medium was removed, and the cells were washed twice with 100 μL of pre-warmed (37° C.) assay buffer listed in Table 15. The cells were pre-incubated at 37° C. for 30 minutes in assay buffer containing the test article at appropriate concentrations (Table 16), appropriate solvents for solvent controls and the reference inhibitor for reference inhibitor wells. After the pre-incubation step solutions were removed. Uptake experiments were performed at 37° C. in 50 μL of assay buffer containing the probe substrate and the test article or solvent and controls.
After the experiment, cells were washed twice with 100 μL of appropriate cold buffer and lysed with 150 μL scintillation cocktail. Radiolabeled probe substrate transport was determined by liquid scintillation counting.
Uptake of the probe substrate in control cells provided background activity values for all data points.

[1] = 2-concentration assay, up to 100 μM (Compound A up to 30 μM)
[2] = 0.14 μM nominal, 0.09 μM NSB corrected, follow-up assay
[3] = 1.24 μM nominal, 0.86 μM NSB corrected, follow-up assay
[4] = 10.00 μM nominal, 6.60 μM NSB corrected
[5] = 11.11 μM nominal, 7.89 μM NSB corrected, follow-up assay
[6] = 33.33 μM nominal, 24.33 μM NSB corrected, follow-up assay
[7] = 100.00 μM nominal, 77.00 μM NSB corrected
[8] = 100.00 μM nominal, 100.00 μM NSB corrected, follow-up assay
[9] = […] nominal, 1.89 μM NSB corrected, follow-up assay

## OC1(c2ccc(Cl)cc2)c2ccccc2C2=NCCN21 (stereo not shown) [Compound A, 5-(4-chlorophenyl)-2,3-dihydroimidazo[1,2-b]isoindol-5-ol, reference compound]
3.00 μM nominal, CCK-8, Table 120
  Relative transporter specific accumulation: 92.81 ± 3.95 % of control
30.00 μM nominal, CCK-8, Table 120
  Relative transporter specific accumulation: 90.63 ± 4.66 % of control
[1]
  maximum inhibition of OATP1B3-mediated CCK-8 accumulation: did not inhibited; also recorded: not an in vitro inhibitor
  Maximum % inhibition: NIO
human
  inhibition at 3 μM: 7%
  inhibition at 30 μM: 9%

## Clc1ccc(C2(OCC3OCCO3)c3ccccc3C3=NCCN32)cc1 (stereo not shown) [Compound I-19]
[2]
  Relative inhibition: 1%
  Relative transporter specific accumulation: 99.35 ± 3.01 % of control
  Transporter specific accumulation: 1,167.00 ± 32.35 cpm
[3]
  Relative inhibition: 8%
  Relative transporter specific accumulation: 91.63 ± 3.53 % of control
  Transporter specific accumulation: 1,076.33 ± 39.37 cpm
[4]
  Relative inhibition: 7%
  Relative transporter specific accumulation: 93.13 ± 0.99 % of control
  Transporter specific accumulation: 1,953.33 ± 8.60 cpm
[5]
  Relative inhibition: 20%
  Relative transporter specific accumulation: 80.11 ± 4.16 % of control
  Transporter specific accumulation: 941.00 ± 47.56 cpm
[6]
  Relative inhibition: 23%
  Relative transporter specific accumulation: 77.21 ± 2.52 % of control
  Transporter specific accumulation: 907.00 ± 27.52 cpm
[7]
  Relative inhibition: 50%
  Relative transporter specific accumulation: 50.40 ± 2.21 % of control
  Transporter specific accumulation: 1,057.00 ± 45.14 cpm
[8]
  Relative inhibition: 61%
  Relative transporter specific accumulation: 39.13 ± 2.03 % of control
  Transporter specific accumulation: 459.67 ± 23.17 cpm
[1]
  maximum inhibition of OATP1B3-mediated CCK-8 accumulation: 50%
  Maximum % inhibition: 61%
[9]
  Relative inhibition: 4%
  Relative transporter specific accumulation: 96.17 ± 1.42 % of control
  Transporter specific accumulation: 1,129.67 ± 9.53 cpm
follow-up assay
  maximum inhibition of OATP1B3-mediated CCK-8 accumulation: 61%
follow-up assay, NSB-corrected concentrations
  IC50: 82.8 µM
